From ChEMBL document CHEMBL6103654, “Design, Biological Characterization, and Discovery of Capromorelin Derivatives as Oral Growth Hormone Secretagogue Receptor Type 1a Agonist for the Treatment of Growth Hormone Deficiency” (J Med Chem, 2025)
The source made the active and inactive calls. The calls are words filed in the database; no cut-off is given here.

Tests used:
CHO = test: Agonist activity at human GHSR expressed in CHO cells at maximum concentration incubated for 60 min by FLIPR assay relative to control; type: cell-based; conditions: filed as agonist
[1] = molecular target: Growth hormone secretagogue receptor type 1 (Rattus norvegicus, UniProt O08725); test: Agonist activity at rat GHSR expressed in CHO cells incubated for 60 min by FLIPR assay; type: functional, cell-based
[2] = molecular target: Growth hormone secretagogue receptor type 1 (Rattus norvegicus) (UniProt O08725); test: Agonist activity at rat GHSR expressed in CHO cells at maximum concentration incubated for 60 min by FLIPR assay relative to control; type: functional, cell-based; conditions: filed as agonist
[3] = Elimination half life in male Sprague-Dawley rat at 1 mg/kg, iv administered as single dose measured after 4 hrs; type: ADME, organism-based; conditions: in vivo, read-out: beta t1/2 (converted)
[4] = Volume of distribution in male Sprague-Dawley rat at 1 mg/kg, iv administered as single dose measured after 4 hrs; type: ADME, organism-based; conditions: in vivo
[5] = Cmax in male Sprague-Dawley rat at 2 mg/kg, po administered as single dose measured after 4 hrs; type: ADME, organism-based; conditions: in vivo
[6] = Tmax in male Sprague-Dawley rat at 2 mg/kg, po administered as single dose measured after 4 hrs; type: ADME, organism-based; conditions: in vivo
[7] = AUC in male Sprague-Dawley rat at 2 mg/kg, po administered as single dose measured after 4 hrs; type: ADME, organism-based; conditions: in vivo
[8] = Oral bioavailability in male Sprague-Dawley rat at 2 mg/kg administered as single dose measured after 4 hrs; type: ADME, organism-based; conditions: in vivo
Rattus norvegicus [9] = test: Induction of growth hormone level in Juvenile Sprague-Dawley rat blood at 0.1 mg/kg, po administered as single dose measured after 20 mins by ELISA method (reference value: 29.1+/-8.6 ng/mL); type: functional
Rattus norvegicus [10] = test: Induction of growth hormone level in Juvenile Sprague-Dawley rat blood at 0.1 mg/kg, po administered as single dose measured after 2 hrs by ELISA method (reference value: 26.5+/-7.3 ng/mL); type: functional
Rattus norvegicus [11] = test: Induction of growth hormone level in Juvenile Sprague-Dawley rat blood at 0.2 mg/kg, po administered as single dose measured after 1 hr by ELISA method (reference value: 45.2+/-12.5 ng/mL); type: functional
Rattus norvegicus [12] = test: Induction of growth hormone level in Juvenile Sprague-Dawley rat blood at 0.5 mg/kg, po administered as single dose measured after 40 mins by ELISA method (reference value: 40.1+/-11.0 ng/mL); type: functional
Rattus norvegicus [13] = test: Induction of growth hormone level in adult Sprague-Dawley rat blood at 0.1 mg/kg, po administered as single dose measured immediately by ELISA method (reference value: 12.6+/-4.4 ng/mL); type: functional
Rattus norvegicus [14] = test: Induction of growth hormone level in adult Sprague-Dawley rat blood by measuring AUC(0 to 40 mins) at 0.5 mg/kg, po administered as single dose by ELISA method (reference value: 7.0+/-1.7 ng/mL); type: functional, organism-based
Rattus norvegicus [15] = test: Induction of growth hormone level in adult Sprague-Dawley rat blood at 0.2 mg/kg, po administered as single dose measured after 40 mins by ELISA method (reference value: 14.4+/-6.9 ng/mL); type: functional
Rattus norvegicus [16] = test: Induction of growth hormone level in adult Sprague-Dawley rat blood at 0.5 mg/kg, po administered as single dose measured immediately by ELISA method (reference value: 12.6+/-4.4 ng/mL); type: functional
Rattus norvegicus [17] = test: Induction of growth hormone level in adult Sprague-Dawley rat blood at 0.5 mg/kg, po administered as single dose measured after 10 mins by ELISA method (reference value: 13.7+/-7.2 ng/mL); type: functional
Rattus norvegicus [18] = test: Induction of growth hormone level in 4 week-old female Sprague-Dawley rat assessed as increase in body length at 2.5 mg/kg, po measured after 10 days; type: functional, organism-based; conditions: time 10.0 day
Rattus norvegicus [19] = test: Induction of growth hormone level in 4 week-old female Sprague-Dawley rat assessed as increase in body weight at 2.5 mg/kg, po measured after 10 days; type: functional, organism-based; conditions: time 10.0 day
Rattus norvegicus [20] = test: Induction of growth hormone level in 6 week-old male Sprague-Dawley rat assessed as increase in body weight at 2.5 mg/kg, po measured after 10 days; type: functional, organism-based; conditions: time 10.0 day
[21] = Volume of distribution in male monkey at 0.5 mg/kg, iv administered as single dose measured after 4 hrs; type: ADME, organism-based, Macaca mulatta; conditions: rhesus monkey, in vivo
[22] = Oral bioavailability in male monkey at 2 mg/kg administered as single dose measured after 4 hrs; type: ADME, organism-based, Macaca mulatta; conditions: rhesus monkey, in vivo
[23] = Volume of distribution in male dog at 0.5 mg/kg, iv administered as single dose measured after 4 hrs; type: ADME, organism-based, Canis lupus familiaris; conditions: in vivo
[24] = Tmax in male dog at 2 mg/kg, po administered as single dose measured after 4 hrs; type: ADME, organism-based, Canis lupus familiaris; conditions: in vivo
[25] = Cmax in male mouse at 2 mg/kg, po administered as single dose measured after 4 hrs; type: ADME, organism-based; conditions: in vivo
[26] = Tmax in male mouse at 2 mg/kg, po administered as single dose measured after 4 hrs; type: ADME, organism-based; conditions: in vivo
[27] = Metabolic stability in rat liver microsome assessed as half life at 1 uM measured upto 60 mins in presence of NADPH by LC-MS/MS analysis; type: ADME; conditions: liver microsomes
[28] = Metabolic stability in mouse liver microsome assessed as half life at 1 uM measured upto 60 mins in presence of NADPH by LC-MS/MS analysis; type: ADME; conditions: liver microsomes
Cytochrome P450 2C9 = Cytochrome P450 2C9 (Homo sapiens, UniProt P11712); test: Inhibition of CYP2C9 in human liver microsome incubated for 5 min in presence of NADPH by UPLC-MS/MS analysis; type: ADME, microsomes
Cytochrome P450 2D6 = Cytochrome P450 2D6 (Homo sapiens, UniProt P10635); test: Inhibition of CYP2D6 in human liver microsome incubated for 5 min in presence of NADPH by UPLC-MS/MS analysis; type: ADME, microsomes
[29] = Genotoxicity in Salmonella typhimurium TA100 by Ames test; type: toxicity; conditions: salmonella enterica subsp. enterica serovar typhimurium
[30] = Genotoxicity in Salmonella typhimurium TA1537 by Ames test; type: toxicity; conditions: salmonella enterica subsp. enterica serovar typhimurium
[31] = Toxicity in Sprague-Dawley rat assessed as effect on lymphocyte containing white pulp around central arteriole at 10 to 100 mg/kg, po administered once daily for 14 days by H&E staining based analysis; type: organism-based; conditions: in vivo, 336 h, dose 10-100 mg/kg, time 14 day
[32] = Toxicity in Sprague-Dawley rat assessed as effect on red pulp with a network of sinuses filled with erythrocytes at 10 to 100 mg/kg, po administered once daily for 14 days by H&E staining based analysis; type: organism-based; conditions: in vivo, 336 h, dose 10-100 mg/kg, time 14 day
Rattus norvegicus [33] = test: In vivo agonist activity at GSHR in Sprague-Dawley rat assessed as increase in food consumption at 10 to 100 mg/kg, po administered once daily for 14 days; type: functional, organism-based; conditions: dose 10-100 mg/kg, time 14.0 day

Chain of Growth hormone secretagogue receptor type 1 (O08725 whole entry): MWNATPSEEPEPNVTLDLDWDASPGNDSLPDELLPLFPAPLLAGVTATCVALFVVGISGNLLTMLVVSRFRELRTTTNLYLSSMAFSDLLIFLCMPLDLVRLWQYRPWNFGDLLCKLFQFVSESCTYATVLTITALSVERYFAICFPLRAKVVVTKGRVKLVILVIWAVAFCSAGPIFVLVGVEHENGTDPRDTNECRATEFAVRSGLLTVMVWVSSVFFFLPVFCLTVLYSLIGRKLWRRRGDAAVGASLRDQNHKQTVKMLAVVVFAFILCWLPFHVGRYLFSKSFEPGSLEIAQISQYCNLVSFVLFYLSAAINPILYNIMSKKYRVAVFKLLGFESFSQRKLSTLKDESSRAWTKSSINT
Chain of Growth hormone secretagogue receptor type 1 (Rattus norvegicus) (O08725 whole entry): as above
Chain of Cytochrome P450 2C9 (P11712 whole entry): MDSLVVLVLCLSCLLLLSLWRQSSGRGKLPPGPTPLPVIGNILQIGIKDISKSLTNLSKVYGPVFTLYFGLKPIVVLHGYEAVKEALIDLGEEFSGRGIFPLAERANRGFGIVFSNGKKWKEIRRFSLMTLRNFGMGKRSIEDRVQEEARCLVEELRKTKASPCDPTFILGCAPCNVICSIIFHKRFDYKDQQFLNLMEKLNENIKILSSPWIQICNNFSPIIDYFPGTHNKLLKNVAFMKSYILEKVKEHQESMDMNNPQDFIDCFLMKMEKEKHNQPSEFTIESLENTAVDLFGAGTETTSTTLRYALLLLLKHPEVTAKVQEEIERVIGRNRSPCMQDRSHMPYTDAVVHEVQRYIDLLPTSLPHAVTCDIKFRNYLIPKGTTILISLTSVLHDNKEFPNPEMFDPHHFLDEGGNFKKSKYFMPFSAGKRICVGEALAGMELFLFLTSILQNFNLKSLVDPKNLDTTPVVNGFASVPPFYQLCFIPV
Chain of Cytochrome P450 2D6 (P10635 whole entry): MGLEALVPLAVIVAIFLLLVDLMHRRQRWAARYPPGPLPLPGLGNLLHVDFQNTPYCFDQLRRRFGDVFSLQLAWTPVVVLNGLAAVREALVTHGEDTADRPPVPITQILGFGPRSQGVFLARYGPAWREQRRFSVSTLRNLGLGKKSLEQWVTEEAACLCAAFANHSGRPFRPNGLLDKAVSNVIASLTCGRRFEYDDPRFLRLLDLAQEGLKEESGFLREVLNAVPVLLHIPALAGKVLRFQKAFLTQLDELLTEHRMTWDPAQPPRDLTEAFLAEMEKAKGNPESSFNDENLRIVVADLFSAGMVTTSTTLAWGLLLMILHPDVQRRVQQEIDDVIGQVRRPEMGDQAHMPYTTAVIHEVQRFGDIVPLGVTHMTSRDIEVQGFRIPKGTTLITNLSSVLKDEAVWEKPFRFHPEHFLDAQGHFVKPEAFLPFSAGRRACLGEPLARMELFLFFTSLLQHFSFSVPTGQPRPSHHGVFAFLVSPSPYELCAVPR

CC(C)(N)C(=O)N[C@H](COCc1ccccc1)C(=O)N1CCC2=NN(C3CC3)C(=O)[C@]2(Cc2ccccc2)C1
Activity (CHO): 152%
EC50 [1]: 7 pM
Activity [2]: 96.7%
half-life [3]: 64.2 min
Vd [4]: 2.65 L/kg
Cmax [5]: 156 ng/mL
Tmax [6]: 15 min
AUC at 4 h [7]: 188 ng·h/mL
bioavailability [8]: 16.7%
Activity (Rattus norvegicus [9]): 263.6 ng/mL
Activity (Rattus norvegicus [10]): 36.7 ng/mL
Activity (Rattus norvegicus [11]): 45.9 ng/mL
Activity (Rattus norvegicus [12]): 74.6 ng/mL
Activity (Rattus norvegicus [13]): 21.2 ng/mL
AUC (Rattus norvegicus [14]): 62.8 ng·h/mL
Activity (Rattus norvegicus [15]): 26 ng/mL
Activity (Rattus norvegicus [16]): 14 ng/mL
Activity (Rattus norvegicus [17]): 238.6 ng/mL
Activity (Rattus norvegicus [18]): Active
Activity (Rattus norvegicus [19]): Active
Activity (Rattus norvegicus [20]): Active
Vd [21]: 2.36 L/kg
F [22]: 15.88%
Vd [23]: 2.88 L/kg
Tmax [24]: 25.2 min
Cmax [25]: 125 ng/mL
Tmax [26]: 15 min
half-life at 1 µM [27]: 9.9 min
half-life at 1 µM [28]: 4.2 min
IC50 (Cytochrome P450 2C9): > 30 µM
IC50 (Cytochrome P450 2D6): > 30 µM
Activity [29]: Non-toxic
Activity [30]: Non-toxic
Activity [31]: Non-toxic
Activity [32]: Non-toxic
Activity (Rattus norvegicus [33]): Active
